Data on one molecule can be found in patent publication US20150306110A1, “COMPOSITIONS AND METHODS FOR TREATMENT OF INFLAMMATION AND HYPERKERATOTIC LESIONS” (Novelix Pharmaceuticals, Inc., priority 2008, published 2015).

pIC50: −log10 of the molar value. Values after ≈ are worked out from the molar mass of the structure shown. Where only a bound is given, the exact number is not on record here.

One data set relates to HAT 1080 (fibrosarcoma). The experiment in a line: Cell growth/survival, HAT 1080 fibrosarcoma cells. Format: cell-based. The note with it: Homo sapiens, TP53 mut. As for the experimental part: Melanoma cell lines used in this study were maintained in Dulbecco's modified Eagle medium (DMEM with 4500 mg/l glucose) supplemented with 10% FCS from Gibco BRL (Life Technologies, Berlin, Germany). The canine mastocytoma cell line C2 (DeVinney et al, Am. J. Respir. Cell Mol. Biol. 3:413-20, 1990) was used in this study, along with additional human cell lines: RD-ES and TC-71 (human Ewing's sarcoma), SAOS2 (human osteosarcoma), HT-1080 (human fibrosarcoma), Caco-2 (human colon adenocarcinoma), A549 (human lung adenocarcinoma), Hep-G2 and Hep-3B (human hepatocellular carcinoma), SK-N-DZ and SK-N-FI (human embryonal neuroblastoma), HTB9 (human bladder cancer), MDA-468 and MCF-7 (human breast cancer) and SW872 liposarcoma. All breast cancer cells were routinely cultured in DMEM/F-12 or in DMEM alone supplemented with 10% FCS at 37° C. in a humidified 5% CO2 atmosphere. RD-ES and TC-71 sarcoma cell lines were maintained in RPMI 1640 (Biochrom KG, Berlin, Germany) containing 10% FCS at 37° C. in a humidified 5% CO2 atmosphere. […]
Briefly, cells were maintained in standard medium, harvested, and plated at equal densities (750,000 cells in 5 cm tissue culture dishes). […] For the assessment of cell growth, the number of surviving cells was determined using an automated cell counter from Beckman Coulter GmbH (Krefeld, Germany). […]

For data set [1], the system named is canine lesion clinically diagnosed as basal cell carcinoma. Nature of the data set: Topical treatment of canine basal cell carcinoma. In kind it is in vivo, dog. An excerpt: A 1% topical solution of NVX-207 in 20% ethanol, 20% Tween® 80 was applied to an exophytically growing slightly bleeding (on contact) tumor on the nose of a dog using a NVX-207 soaked cotton swab every second to third day for 7 weeks.

The nature of data set [2]: Solubility in ethanol, DMSO and ethanol-Tween 80. Format: physicochemical. The conditions noted are these: for solubility: organic solvent or mixture. The method, then:
After solution in ethanol or DMSO, or chemically similar solvents, NVX-207 or a related compound may be formulated with co-solvents such as Cremophor EL® and/or Tween® 80, in a similar manner described for taxanes. For example, the formulation approach for paclitaxel (TAXOL®; Bristol-Myers Squibb) was to use 50% Cremophor EL® and 50% ethanol. The pharmaceutical formulation of paclitaxel contains 30 mg paclitaxel dissolved in 5 ml of this (1:1, v/v) mixture. These and equivalent formulations allow for the application of NVX-207 in sufficiently high concentrations not only for topical, but also for intralesional and systemic (intravenous infusion) use. Solubility of NVX-207 in ethanol was determined to be at least 300 mg/ml and reached 250 mg/ml in DMSO. […] The solubility of NVX-207 in ethanol-Tween® 80 was evaluated. Two-hundred mg of NVX-207 was dissolved in 1 ml ethanol. […] Then an equal volume of Tween® 80 was added, to achieve a stock solution of 100 mg/ml of NVX-207. The stock solution was clear and yellow. Each stock solution was diluted first 1:1 (50 mg/ml NVX-207), then 1:5 (20 mg/ml NVX-207) and finally 1:10 (10 mg/ml NVX-207) with water. […] NVX-207 therefore has, apart from its higher activity, significant advantages over betulinic acid, that include higher activity, better solubility in pharmaceutically suitable solvents, and better handling.

For a further data set, the system named is GOTO (autonomic ganglia). The experiment in a line: Cell growth/survival, GOTO neuronal cancer cells. Format: cell-based. The note with it: Homo sapiens, TP53 neg.

Regarding `C=C(C)[C@@H]1CC[C@]2(C(=O)OCC(N)(CO)CO)CC[C@]3(C)[C@H](CC[C@@H]4[C@@]5(C)CC[C@H](OC(C)=O)C(C)(C)[C@@H]5CC[C@]43C)[C@@H]12` [NVX-207, 3-O-acetylbetulinic acid-2-amino-3-hydroxy-2-hydroxymethylpropyl ester], the values for the pIC50 with HAT 1080 (fibrosarcoma) and in the data set on GOTO (autonomic ganglia) were 5.25 and 5.70, respectively. For the same molecule, in data set [1] (1% topical solution in 20% ethanol, 20% Tween 80 every second to third day, after 3 weeks), the Reduction of tumor result was “about 90%”. Besides, the Inflammation during treatment result in data set [1] (topical) is “absence of inflammation”. Moreover, in data set [2] (DMSO), the “Increase in solubility in DMSO compared to betulinic acid” value is on record as “over 20 fold”. Further, the “Increase in solubility in ethanol compared to betulinic acid” value in data set [2] (ethanol) is given as “over 300 fold”. In addition, the solubility is 250 mg/mL (≈ 415 mM) in data set [2] (Solubility in DMSO) and at least 300 mg/mL in data set [2] (Solubility in ethanol).
